Measured values from patent US9057725B2, “Composition for diagnosing, treating, and preventing liver disease” (SNU R&DB Foundation, priority 2010, dated 2015).
“Also recorded” adds a separate entry of the source.

Key:
TM4SF5 expression [1] = experiment: TM4SF5 expression mediated by conditioned medium of LX2 cells in AML12 cells with AG1478; type: cell-based, mouse; conditions: AG1478 100 nM, 24 hours
Method: Particularly, one hour before the treatment of conditioned medium of LX2 cells to AML12 cells, AG1478 (100 nM) was added to the medium to inhibit EGFR kinase activity, leading to the suppression of EGFR signaling, which was then treated to AML12 cells, followed by further culture for 24 hours.

TM4SF5 expression [2] = experiment: TGFβ mediated TM4SF5 expression in AML12 cells with EGFR inhibitor, Western blotting and optical microscope; type: cell-based, mouse
Method: Particularly, AML12 cells were cultured in DMEM supplemented with 10% FBS, which were then washed with serum-free DMEM. The cells were maintained as serum-free status for 4 hours. After serum starvation, the cells were treated with DMSO (control vehicle) and AG1478 (100 nM) 30 minutes before the treatment of TGFβ (2.5 ng/ml) in order to inhibit EGFR signaling. After the treatment of TGFβ (R&D systems, Minneapolis, Minn., USA), the cells were further cultured for 24 more hours.
Western blotting was performed with antibodies against phospho-Y^1173EGFR (Santa Cruz Biotechnology, Santa Cruz, Calif.), phospho-Y^992EGFR (Cell Signaling Technology, Danvers, Mass.), phospho-Erk (Cell Signaling Technology, Danvers, Mass.), phospho-Smad2 (Cell Signaling Technology, Danvers, Mass.), phospho-Smad3 (Cell Signaling Technology, Danvers, Mass.), TM4SF5, and α-tubulin (Sigma-Aldrich) to investigate the expressions of TM4SF5 and EGFR signal transduction system related factors.
(2) AML12 cells were cultured in DMEM supplemented with 10% FBS, which were then washed with serum-free DMEM. The cells were maintained as serum-free status for 4 hours. After serum starvation, the cells were treated with various inhibitors such as PD98059 (MEK inhibitor, LC Laboratories, Woburn, Mass.), LY294002 (PI3K inhibitor), PP2, PP3 (src inhibitor, Tocris Cookson, Avonmouth, UK), Rapamycin (mTOR inhibitor), GF109203 (PKC inhibitor, Calbiochem, San Diego, Calif.), AG1478 (EGFR inhibitor, LC Laboratories, Woburn, Mass.), U0126 (ERK1/2 inhibitor, LC Laboratories, Woburn, Mass.), SP600125 (Jnk inhibitor), and Y-27632 (ROCK inhibitor, Calbiochem, San Diego, Calif.) 30 minutes before the treatment of TGFβ (2.5 ng/ml). Then, TM4SF5 expression was examined. As a result, TM4SF5 expression was reduced by AG1478 under the near death condition (the condition in which phospho-Y^397 FAK level was high) (FIG. 8).

TM4SF5 expression [3] = experiment: TGFβ mediated TM4SF5 expression in Chang cells infected with Smad adenoviruses with AG1478; type: cell-based, human; conditions: group treated with Smad2 and Smad4 adenoviruses, AG1478 1 hour before TGFβ, 24 hours
Method: In addition, Chang cells were infected with Smad2, Smad3, and Smad4 adenoviruses for 24 hours, followed by serum starvation for 24 hours. After serum starvation, the cells were treated with AG1478 1 hour before the treatment of TGFβ in order to inhibit EGFR signaling. After the treatment of TGFβ, the cells were further cultured for 24 more hours. Then, the protein in the cell extract was quantified, followed by Western blotting. As a result, it was confirmed that TGFβ mediated TM4SF5 expression was reduced by AG1478 in the group treated with Smad2 and Smad4 adenoviruses.

Chang cells [4] = experiment: TM4SF5 expression and EGFR signal transduction system over treatment times of TGFβ and EGF in Chang cells; type: cell-based, human; conditions: TGFβ (2.5 ng/ml) and EGF (50 ng/ml), 0, 0.5, 1, 2, and 24 hours
Method: Chang cells were cultured in DMEM supplemented with 10% FBS, which were then washed with serum-free DMEM. The cells were maintained as serum-free status for 4 hours. […] Then, TM4SF5 expression and EGFR signal transduction system were investigated.

AML12 cells = experiment: TM4SF5 expression and EMT induced by TGFβ in AML12 cells; type: cell-based, mouse
Method: (§1) AML12 cells (ATCC, USA), the normal mouse hepatocytes, and Chang cells (ATCC, USA), the normal human hepatocytes, cultured in DMEM supplemented with 10% FBS were washed with serum-free DMEM, which were maintained as serum-free status for 4 hours. After serum starvation, the cells were treated with TGFβ (2.5 ng/ml), followed by further culture for 24 hours. At last, cell extracts were prepared.
TM4SF5 protein expression was increased in those extracts, confirmed by immunoblotting and immunofluorescence assay using antibodies against pSmad3, pSmad2 (Cell Signaling Technology, Danvers, Mass.), vimentin (Sigma-Aldrich), E-adherin (Santa Cruz Biotechnology, Santa Cruz, Calif.), and TM4SF5 (Sin-Ae Lee et al., J. Clin. Invest. 2008 April; 118(4):1354-66). The nucleotide sequence of TM4SF5 antibody was confirmed by using pGEX-5X2 vector (Amersham) comprising c-terminal of TM4SF5 (the region from the 229th nucleotide residue to the 594th nucleotide residue, digested with EcoR1). To obtain recombinant protein induced by IPTG from DH5a bacteria, PBS comprising 0.3% SDS and protease inhibitor was used. After protein extraction, antigen was extracted from electrophoresed SDS gel, followed by immunizing mice with that. After immune response was induced three times in total, serum was obtained from the mice. Immunoreactivity of the serum with recombinant protein and animal cell extract was investigated.
As a result, as shown in FIG. 3 and FIG. 5, when AML12 cells were treated with TGFβ, TM4SF5 expression was increased. In addition, EMT (epithelial-mesenchymal transition) was induced by the increases of α-SMA and vimentin and the decrease of E-cadherin. It was also confirmed by immunoblotting that the expression of E-cadherin, which is important for cell-cell contact, was reduced, but the expression of vimentin, the mesenchymal cell marker, was increased. In the meantime, according to immunofluorescence assay, the cells were placed on cover glass coated with fibronectin (10 μg/ml) to perform immunofluorescence staining, followed by treating with TGFβ. Upon completion of immunofluorescence staining with vimentin antibody, the cover glass was observed under fluorescence microscope. As a result, vimentin expression was increased, compared with the control treated with vehicle (PBS, phosphate saline buffer) only without TGFβ, and EMT was confirmed by dispersed cell pattern (FIG. 3).

Chang cells [5] = experiment: TM4SF5 expression and EMT induced by TGFβ in Chang cells; type: cell-based, human
Method: as §1
Chang cells, the normal human hepatocytes, were treated with TGFβ, followed by immunoblotting. As a result, it was confirmed that TM4SF5 expression was induced. From the comparison of cellular morphology, it was also confirmed that cell-cell contact became weak, compared with the control treated with vehicle (PBS) only without TGFβ, and EMT was induced, and the expression of α-SMA, the mesenchymal cell marker, was increased (FIG. 4).
In addition, Chang cells, the normal human hepatocytes, were treated with TGFβ at different concentrations of 0, 2.5 and 5 ng/ml, followed by immunoblotting. […] EGFR signal transduction system was also activated, confirmed by using antibodies against phospho-Y^1173EGFR (Santa Cruz Biotechnology, Santa Cruz, Calif.), EGFR (Santa Cruz Biotechnology, Santa Cruz, Calif.), phospho-Erk, phospho-Smad2, phospho-Smad3 (Cell Signaling Technology, Danvers, Mass.), and α-tubulin (Sigma-Aldrich) (FIG. 5).

human TM4SF5 promoter = experiment: Luciferase reporter gene assay with TM4SF5 promoter in Huh7, HepG2 and SNU16mAd cells; type: cell-based
Method: Particularly, Huh7 and HepG2 (liver cancer cell lines), and SNU16mAd (stomach cancer cell line) were transfected with pBabe-galactosidase (Choi et al., 2009, Blood 113:1845-1855) containing pGL3-human TM4SF5 promoter prepared by inserting genomic fragment of TM4SF5 upstream promoter located approximately −3 kb ahead of TM4SF5 gene in pGL3 luciferase vector (Promega), followed by harvesting 24 hours later. Then, luciferase activity of the reporter gene was measured. Infection efficiency was confirmed by measuring beta-galactosidase activity, followed by quantification after normalization. […] Unlike pGL3-TM4SF5 that was the construct harboring TM4SF5 promoter region whose transcriptional activity could be confirmed, pGL3-basic was the construct without the promoter, meaning transcription would not be activated, which was thereby used as the control (FIG. 2).

[6] = Chang cells, 0, 2.5 and 5 ng/ml

Molecule | TM4SF5 expression mediated by conditioned medium of LX2 cells (TM4SF5 expression [1]) | cell-cell contact (TGFβ mediated cell dispersion, cell morphology change) (TM4SF5 expression [2]; AML12 cells, AG1478 100 nM, TGFβ 2.5 ng/ml, optical microscope) | TGFβ mediated TM4SF5 expression (TM4SF5 expression [2]; AML12 cells, inhibitor 30 minutes before TGFβ (2.5 ng/ml), AG1478 100 nM, 24 hours) | TGFβ signaling Smad2 activation (TM4SF5 expression [2]; suppression of EGFR activation by AG1478) | TGFβ mediated TM4SF5 expression (TM4SF5 expression [3]) | EGFR signal transduction system activation and TM4SF5 expression over time (Chang cells [4]) | EMT (epithelial-mesenchymal transition) (AML12 cells; TGFβ 2.5 ng/ml, 24 hours) | TM4SF5 expression (AML12 cells; TGFβ 2.5 ng/ml, 24 hours) | E-cadherin expression (AML12 cells; immunoblotting) | vimentin expression (AML12 cells; immunoblotting) | α-SMA expression (Chang cells [5]; Chang cells) | EGFR signal transduction system (Chang cells [5]; [6]) | TM4SF5 protein expression at different TGFβ concentrations (Chang cells [5]; [6]) | cell-cell contact (Chang cells [5]; Chang cells, compared with vehicle (PBS)) | TM4SF5 expression (Chang cells [5]; Chang cells, immunoblotting) | transcriptional activity of TM4SF5 promoter region (luciferase) (human TM4SF5 promoter)
COc1cc2ncnc(Nc3cccc(Cl)c3)c2cc1OC [AG1478] | reduced; also recorded: not increased any more | maintained; also recorded: suppressed | decreased; also recorded: reduced; also recorded: suppressed | did not affect | reduced |  |  |  |  |  |  |  |  |  |  | 
TGFβ: transforming growth factor β, a multi-functional cytokine (R&D systems) |  |  |  |  |  | induced continuously | induced | increased | reduced | increased | increased | activated | increased TGFβ dose-dependently | became weak | induced | increased
